Source: patent US20180344696A1, “SYNERGISTIC COMBINATION OF PYRROLIDONE CARBOXYLIC ACID AND/OR SALTS THEREOF AND HYALURONIC ACID AND/OR SALTS THEREOF, FOR USE IN THE TREATMENT AND/OR PREVENTION OF DRYNESS AND IRRITATION OF THE MUCOSAE, AND RELATED PHARMACEUTICAL FORMULATIONS” (LABORATORI BALDACCI S.P.A., priority 2015, published 2018)

What was measured:
[1] = Determination of PCA permanence on the nasal mucosa (HPLC recovery after applying gel); type: in vivo, human
Procedure: The samples were taken at various time points after administration, in order to accurately collect all the material present on the mucosa. After restoring to a certain volume of water (20 ml), the suspension obtained was filtered, and then 20 μl were injected into a chromatograph for quantitative analysis. A Waters liquid chromatograph with the following parameters was used: • Column: μBondapack C18 • Mobile phase: 0.1 M phosphoric acid at pH 3 with sodium hydroxide. • Flow: 1.5 ml/min • Detector: Spectrophotometer at 210 nm

[2] = Permanence of PCA in mucosal tissue after topical application (general statements); type: in vivo
[3] = Hygroscopic test according to Farmacopea Ufficiale Italiana (FUI) XII; type: physicochemical; details: 5.00 g dried sample, 25° C., 24 hours
Procedure: The determination of hygroscopicity of the combination of PCA and hyaluronic acid was performed, a test related to the hydration capability of a compound or mixture of compounds, to evaluate the synergism of the combination of PCA and hyaluronic acid for use in the treatment and/or prevention of dryness and irritation of the mucosae. […] At the end of the procedure, the contained was closed with its lid and weighed again (m3).

O=C1CCC(C(=O)O)N1 (centres unmarked) [PCA, Pyrrolidone carboxylic acid]
PCA percentage present in the nasal mucosa, % of recovery based on the standard ([1]; T = 0 after administration, 100 mg gel of Example 2 (1% PCA, 0.05% hyaluronic acid) on nasal mucosa): 95% n = 1
PCA percentage present in the nasal mucosa, % of recovery based on the standard ([1]; T = 60 after administration, 100 mg gel of Example 2 on nasal mucosa): 80% n = 2
PCA percentage present in the nasal mucosa, % of recovery based on the standard ([1]; T = 120 after administration, 100 mg gel of Example 2 on nasal mucosa): 78% n = 2
PCA percentage present in the nasal mucosa, % of recovery based on the standard ([1]; T = 180 after administration, 100 mg gel of Example 2 on nasal mucosa): 70% n = 3
Time PCA is present on the nasal mucosa after application ([1]; gel formulation from Example 2 on the nasal mucosa): ≥ 4 h
Administered amount of PCA identified in mucosal tissues ([2]; 4 hours after a topical application of the formulations of the invention): approximately 80%
Time PCA remains in the mucosae ([2]; after topical application): > 4 h

Hyaluronic acid [100% HA]
Result (hygroscopicity class) [3]: hygroscopic
Water adsorption (%) (average of the triplicate) [3]: 6.00%
Water adsorption (g) (average of the triplicate) [3]: 0.30 g
Final Weight ([3]; desiccator with saturated ammonium chloride or ammonium sulfate solution): 5.30 ± 0.05 g
